Assays:
[1] = Inhibition of ATG5-TECAIR (unknown origin) protein protein interaction expressed in Escherichia coli BL21 (DE3) by HTRF method; design: species or system Homo sapiens
[2] = Inhibition of ATG5-ATG16L1 (unknown origin) protein protein interaction expressed in Escherichia coli BL21 (DE3) by HTRF method; design: species or system Homo sapiens
COS-7 = test: Inhibition of autophagy in African green monkey COS-7 cells at 20 uM by flow cytometry analysis relative to control; assay type: functional; conditions: Chlorocebus aethiops

SMILES	IC50 ([1]; read-out: IC50)	IC50 ([2]; read-out: IC50)	inhibition at 20 µM (COS-7)	IC50 [1]	IC50 [2]
CC1=NN(c2ccc(C(=O)O)cc2)C(=O)/C1=C\c1ccc(-c2cc(C)c(C)cc2[N+](=O)[O-])o1	> 33 µM	> 33 µM	–	–	–
O=C1/C(=C/c2ccc(-c3ccc([N+](=O)[O-])cc3)o2)C=C(c2ccccc2)N1Cc1ccccc1Br	–	–	82.5%	–	–
COC(=O)CCN1C(=O)/C(=C/c2ccc(-c3ccc([N+](=O)[O-])cc3)o2)C=C1c1ccccc1	–	–	77.1%	Not Active	Not Active
Cc1cc(-c2ccc(/C=C3\C(=O)N(c4ccc(C(=O)O)cc4)N=C3C3CC3)s2)c(C(F)(F)F)cc1C	> 33 µM	> 33 µM	–	–	–
CC1=NN(c2ccc(C(=O)O)cc2)C(=O)/C1=C\c1ccc(-c2cccc([N+](=O)[O-])c2)s1	23 µM	11.2 µM	–	–	–
O=C(O)CCN1C(=O)/C(=C/c2ccc(-c3ccc([N+](=O)[O-])cc3Cl)o2)SC1=S	23 µM	16 µM	–	–	–
CC1=NN(c2ccc(-n3cnnn3)cc2)C(=O)/C1=C\c1ccc(-c2cc(C)c(C)cc2[N+](=O)[O-])o1	> 33 µM	> 33 µM	–	–	–
O=C(O)CCN1C(=O)/C(=C/c2ccc(-c3ccc([N+](=O)[O-])cc3)o2)C=C1c1ccccc1	17.2 µM	> 100 µM	21.4%	–	–
COc1ccc(-c2ccc(/C=C3\C=C(c4ccccc4)N(c4ccc(C(=O)O)cc4)C3=O)o2)cc1	16 µM	25 µM	96.6%	–	–
CC1=NN(c2ccccc2)C(=O)/C1=C\c1ccc(-c2cc(C)c(C)cc2[N+](=O)[O-])o1	> 33 µM	–	–	–	Not Active
CC1=NN(c2ccc(C(=O)O)cc2)C(=O)/C1=C\c1ccc(-c2cc(C)c(C)cc2C(F)(F)F)o1	31.1 µM	> 33 µM	–	–	–
O=C(O)c1ccc(N2C(=O)/C(=C/c3ccc(-c4ccc(Br)cc4)o3)C=C2c2ccccc2)cc1	19 µM	> 33 µM	97.3%	–	–
CCOC(=O)CN1C(=O)/C(=C/c2ccc(-c3ccc([N+](=O)[O-])cc3)o2)C=C1c1ccccc1	–	–	79%	–	–
O=C(O)CN1C(=O)/C(=C/c2ccc(-c3ccc([N+](=O)[O-])cc3)o2)C=C1c1ccccc1	31.2 µM	–	3.29%	–	Not Active
O=C(O)c1ccc(N2C(=O)/C(=C/c3ccc(-c4ccc(O)cc4)o3)C=C2c2ccccc2)cc1	> 33 µM	> 33 µM	97.1%	–	–
O=C1/C(=C/c2ccc(-c3ccc([N+](=O)[O-])cc3)o2)C=C(c2ccccc2)N1Cc1ccc(C(F)(F)F)cc1	–	–	87.7%	Not Active	Not Active
COC(=O)c1cccc(CN2C(=O)/C(=C/c3ccc(-c4ccc([N+](=O)[O-])cc4)o3)C=C2c2ccccc2)c1	–	–	78.4%	–	–
COC(=O)c1ccc(N2C(=O)/C(=C/c3ccc(-c4ccc([N+](=O)[O-])cc4)o3)C=C2c2ccccc2)cc1	–	–	98.9%	Not Active	Not Active
O=C(O)c1ccc(N2C(=O)/C(=C/c3ccc(-c4cccnc4)s3)C=C2c2ccccc2)cc1	> 33 µM	–	97.3%	–	Not Active
O=C1/C(=C/c2ccc(-c3ccc([N+](=O)[O-])cc3)o2)C=C(c2ccccc2)N1Cc1ccccc1	–	–	78.7%	Not Active	Not Active
CC1=NN(c2ccc(C(=O)O)cc2)C(=O)/C1=C\c1ccc(-c2ccc([N+](=O)[O-])cc2)s1	6.08 µM	5.24 µM	–	–	–
O=C(O)c1ccc(N2C(=O)/C(=C/c3ccc(-c4ccc(O)cc4)s3)C=C2c2ccccc2)cc1	10 µM	12 µM	98.8%	–	–
COC(=O)CCCCN1C(=O)/C(=C/c2ccc(-c3ccc([N+](=O)[O-])cc3)o2)C=C1c1ccccc1	–	–	16.6%	Not Active	Not Active
O=C(O)CCCCN1C(=O)/C(=C/c2ccc(-c3ccc([N+](=O)[O-])cc3)o2)C=C1c1ccccc1	19.2 µM	> 33 µM	14.6%	–	–
CC(=O)c1ccc(-c2ccc(/C=C3\C=C(c4ccccc4)N(Cc4ccc(C(=O)O)cc4)C3=O)o2)cc1	16.3 µM	26.9 µM	14.6%	–	–

SMILES	IC50 ([1]; read-out: IC50)	IC50 ([2]; read-out: IC50)	inhibition at 20 µM (COS-7)	IC50 [1]	IC50 [2]
CC1=NN(c2ccc(C(=O)O)cc2)C(=O)C1Cc1ccc(-c2cccc([N+](=O)[O-])c2)s1 (stereo unspecified)	> 33 µM	–	–	–	Not Active
CC1=NN(c2ccc(C(=O)O)cc2)C(=O)/C1=C\c1ccc(-c2ccccc2P(C)(C)=O)o1	–	–	–	Not Active	Not Active
CCCCN1C(=O)/C(=C/c2ccc(-c3ccc([N+](=O)[O-])cc3)o2)C=C1c1ccccc1	–	–	77.8%	–	–
CC1=NN(c2ccc(C(=O)O)cc2)C(=O)/C1=C\c1ccc(-c2cc(C)c(C)cc2[N+](=O)[O-])s1	11.9 µM	11.6 µM	–	–	–
CC1=NN(c2ccc(C(=O)O)cc2)C(=O)/C1=C\c1ccc(-c2ccccc2C(F)F)o1	> 33 µM	21.4 µM	–	–	–
CS(=O)(=O)c1ccc(-c2ccc(/C=C3\C=C(c4ccccc4)N(Cc4ccc(C(=O)O)cc4)C3=O)o2)cc1	> 33 µM	–	53.7%	–	Not Active
CC1=NN(c2ccc(C(=O)O)cc2)C(=O)C1Cc1ccc(-c2cc(C)c(C)cc2[N+](=O)[O-])s1 (stereo unspecified)	> 33 µM	–	–	–	Not Active
O=C(O)c1ccc(N2C(=O)/C(=C/c3ccc(-c4ccc([N+](=O)[O-])cc4)s3)C=C2c2ccccc2)cc1	30 µM	18 µM	90.9%	–	–
CC1=NN(c2ccc(C(=O)O)cc2)C(=O)C1Cc1ccc(-c2cc(C)c(C)cc2[N+](=O)[O-])o1 (stereo unspecified)	> 33 µM	> 33 µM	–	–	–
O=C(O)c1ccc(N2C(=O)/C(=C/c3ccc(-c4cc(F)c(F)c(F)c4)s3)C=C2c2ccccc2)cc1	22 µM	12 µM	97.6%	–	–
O=C(O)c1ccc(CN2C(=O)/C(=C/c3ccc(-c4cccc([N+](=O)[O-])c4)o3)C=C2c2ccccc2)cc1	10.5 µM	6.14 µM	36%	–	–
CC1=NN(c2ccc(C(=O)O)cc2)C(=O)C1Cc1ccc(-c2ccc([N+](=O)[O-])cc2)s1 (stereo unspecified)	> 33 µM	> 33 µM	–	–	–
O=C(O)c1ccc(CN2C(=O)/C(=C/c3ccc(-c4ccccc4)o3)C=C2c2ccccc2)cc1	> 33 µM	> 33 µM	20.6%	–	–
O=C(O)CCN1C(=O)/C(=C\c2ccc(-c3ccc([N+](=O)[O-])cc3)o2)SC1=S	19 µM	27 µM	–	–	–
O=C(O)c1ccc(CN2C(=O)/C(=C/c3ccc(-c4ccc([N+](=O)[O-])cc4)o3)C=C2c2ccccc2)cc1	3.68 µM	2.29 µM	5.88%	–	–
N#Cc1ccc(-c2ccc(/C=C3\C=C(c4ccccc4)N(c4ccc(C(=O)O)cc4)C3=O)s2)cc1	–	–	93.9%	Not Active	Not Active
Cc1cc(-c2ccc(/C=C3\C(=O)N(c4ccc(C(=O)O)cc4)N=C3C3CC3)s2)c([N+](=O)[O-])cc1C	> 33 µM	22.3 µM	–	–	–
NC(=O)c1ccc(-c2ccc(/C=C3\C=C(c4ccccc4)N(Cc4ccc(C(=O)O)cc4)C3=O)o2)cc1	> 33 µM	> 33 µM	38.9%	–	–
O=C(O)c1cccc(CN2C(=O)/C(=C/c3ccc(-c4ccc([N+](=O)[O-])cc4)o3)C=C2c2ccccc2)c1	21.3 µM	> 33 µM	8.1%	–	–
NC(=O)c1cccc(-c2ccc(/C=C3\C=C(c4ccccc4)N(Cc4ccc(C(=O)O)cc4)C3=O)o2)c1	> 33 µM	–	8.3%	–	Not Active
CCN(CC)CCCC(C)Nc1ccnc2cc(Cl)ccc12 (stereo unspecified) [CHLOROQUINE]	28 µM	37 µM	–	–	–
COC(=O)c1ccc(CN2C(=O)/C(=C/c3ccc(-c4ccc([N+](=O)[O-])cc4)o3)C=C2c2ccccc2)cc1	–	–	59.8%	Not Active	Not Active
CC(=O)c1cccc(-c2ccc(/C=C3\C=C(c4ccccc4)N(Cc4ccc(C(=O)O)cc4)C3=O)o2)c1	14.9 µM	27.4 µM	–	–	–
Cc1cc(-c2ccc(CC3C(=O)N(c4ccc(C(=O)O)cc4)N=C3C3CC3)s2)c([N+](=O)[O-])cc1C (stereo unspecified)	> 33 µM	> 33 µM	–	–	–
O=C(O)CCN1C(=O)/C(=C/c2cc([N+](=O)[O-])ccc2OCc2ccccc2Cl)SC1=S	26 µM	16 µM	–	–	–

Source: ChEMBL document CHEMBL5380800, “Discovery of Small-Molecule Autophagy Inhibitors by Disrupting the Protein-Protein Interactions Involving Autophagy-Related 5” (J Med Chem, 2023)
